The results in this text go back to ChEMBL document CHEMBL3745638, “Synthesis and biological evaluation of a novel artesunate-podophyllotoxin conjugate as anticancer agent” (Bioorg Med Chem Lett, 2016).

The subject of one test is A549. Description: Antiproliferative activity against human A549 cells assessed as growth inhibition after 72 hrs by CCK-8 assay. In kind it is functional, cell-based. The note with it: A549, 72 h. On the technique in general: Tetrazolium dyes change colour on reduction, which living cells bring about.
Test [1] deals with K562/Adr. Kind of test: Inhibition of P-glycoprotein in human K562/ADR cells at 2.5 uM after 48 hrs by Western blot analysis. In kind it is cell-based. On the technique in general: Immunoblotting shows a protein as a band on a membrane.
The subject of test [2] is K562/Adr. Kind of test: Induction of apoptosis in human K562/ADR cells assessed as early apoptotic cells at 2.5 uM after 48 hrs by Annexin V-APC/7-AAD staining based flow cytometry (reference value: 1.49%). In kind it is functional. (A flow cytometer gives signals particle by particle.)
The nature of test [3]: Cell cycle arrest in human K562/ADR cells assessed as accumulation in G2/M phase at 2.5 uM after 48 hrs by propidium iodide staining-based flow cytometry (reference value: 8.32 +/- 0.81%). In kind it is functional.
The target in test [4] is T1, Tubulin (Homo sapiens) (UniProt P68371+Q9H4B7+P0DPH7+P68366+Q13509+Q71U36+P04350+Q3ZCM7+P07437+P68363+Q9BQE3+Q6PEY2+Q13885+Q9BVA1+Q9BUF5). Kind of test: Inhibition of tubulin polymerization in human K562/ADR cells assessed as reduction in microtubule density at 5 uM after 8 hrs by DAPI staining based immunofluorescence microscopy. In kind it is cell-based.
The next test has as its system HepG2. Kind of test: Antiproliferative activity against human HepG2 cells assessed as growth inhibition after 72 hrs by CCK-8 assay. In kind it is functional, cell-based. The note with it: HepG2, 72 h.
Test [5] deals with K562/Adr. Description: Induction of apoptosis in human K562/ADR cells assessed as necrotic cells at 2.5 uM after 48 hrs by Annexin V-APC/7-AAD staining based flow cytometry (reference value: 3.57%). In kind it is functional.
The test system of test [6] is K562. Description: Resistance factor, ratio of IC50 for human K562/ADR cells to IC50 for human K562 cells. In kind it is functional.
Test [7] relates to K562/Adr. Description: Induction of apoptosis in human K562/ADR cells assessed as induction of cell shrinkage at 2.5 uM after 48 hrs by Hoechst 33342 staining based fluorescence microscopy. In kind it is functional.
A further test has as its system HeLa. Kind of test: Antiproliferative activity against human HeLa cells assessed as growth inhibition after 72 hrs by CCK-8 assay. In kind it is functional, cell-based.
Test [8] concerns K562. Description: Antiproliferative activity against human K562 cells assessed as growth inhibition after 72 hrs by CCK-8 assay. In kind it is functional, cell-based. The note with it: K562, 72 h.
Test [9] is described as follows: Antiproliferative activity against human K562/ADR cells assessed as growth inhibition after 72 hrs by CCK-8 assay. In kind it is functional, cell-based.
Test [10] has as its system K562/Adr. Description: Induction of apoptosis in human K562/ADR cells assessed as late apoptotic cells at 2.5 uM after 48 hrs by Annexin V-APC/7-AAD staining based flow cytometry (reference value: 1.69%). In kind it is functional.
Test [11] has as its system K562/Adr. Description: Induction of apoptosis in human K562/ADR cells assessed as nuclear condensation at 2.5 uM after 48 hrs by Hoechst 33342 staining based fluorescence microscopy. In kind it is functional, cell-based.
Test [12] relates to K562/Adr. Kind of test: Induction of apoptosis in human K562/ADR cells assessed as nuclear fragmentation at 2.5 uM after 48 hrs by Hoechst 33342 staining based fluorescence microscopy. In kind it is functional, cell-based.
The test system of another test is HUVEC. Kind of test: Antiproliferative activity against HUVEC assessed as growth inhibition after 72 hrs by CCK-8 assay. In kind it is cell-based. The following applies: Homo sapiens.
The target in test [13] is T1, Tubulin (Homo sapiens). Description: Inhibition of tubulin polymerization in human K562/ADR cells assessed as microtubule disruption at 5 uM after 8 hrs by DAPI staining based immunofluorescence microscopy. In kind it is cell-based.
In test [14] the test system is K562/Adr. Kind of test: Induction of apoptosis in human K562/ADR cells assessed as viable cells at 2.5 uM after 48 hrs by Annexin V-APC/7-AAD staining based flow cytometry (reference value: 93.25%). In kind it is functional. The following applies: read-out: Activity.
Test [15] deals with K562/Adr. Description: Induction of apoptosis in human K562/ADR cells assessed as late apoptotic cells at 6.5 uM after 48 hrs by Annexin V-APC/7-AAD staining based flow cytometry (reference value: 1.69%). In kind it is functional.
For test [16], the system named is K562/Adr. Kind of test: Induction of apoptosis in human K562/ADR cells assessed as viable cells at 6.5 uM after 48 hrs by Annexin V-APC/7-AAD staining based flow cytometry (reference value: 93.25%). In kind it is functional. The following applies: read-out: Activity.
In test [17] the test system is K562/Adr. Description: Induction of apoptosis in human K562/ADR cells assessed as nuclear fragmentation at 6.5 uM after 48 hrs by Hoechst 33342 staining based fluorescence microscopy. In kind it is functional, cell-based.
Test [18] addresses T1, Tubulin (Homo sapiens). Kind of test: Inhibition of tubulin polymerization in human K562/ADR cells assessed as microtubule disruption at 13 uM after 16 hrs by DAPI staining based immunofluorescence microscopy. In kind it is cell-based.
Test [19] addresses T1, Tubulin (Homo sapiens). Description: Inhibition of tubulin polymerization in human K562/ADR cells assessed as reduction in microtubule density at 13 uM after 16 hrs by DAPI staining based immunofluorescence microscopy. In kind it is cell-based.
For test [20], the system named is K562/Adr. Description: Induction of apoptosis in human K562/ADR cells assessed as necrotic cells at 6.5 uM after 48 hrs by Annexin V-APC/7-AAD staining based flow cytometry (reference value: 3.57%). In kind it is functional.
The test system of test [21] is K562/Adr. Description: Induction of apoptosis in human K562/ADR cells assessed as induction of cell shrinkage at 6.5 uM after 48 hrs by Hoechst 33342 staining based fluorescence microscopy. In kind it is functional.
The subject of test [22] is K562/Adr. Description: Induction of apoptosis in human K562/ADR cells assessed as early apoptotic cells at 6.5 uM after 48 hrs by Annexin V-APC/7-AAD staining based flow cytometry (reference value: 1.49%). In kind it is functional.
The subject of test [23] is K562/Adr. Kind of test: Induction of apoptosis in human K562/ADR cells assessed as nuclear condensation at 6.5 uM after 48 hrs by Hoechst 33342 staining based fluorescence microscopy. In kind it is functional, cell-based.
In test [24] the test system is K562/Adr. Kind of test: Inhibition of P-glycoprotein in human K562/ADR cells at 6.5 uM after 48 hrs by Western blot analysis. In kind it is cell-based.
The nature of test [25]: Cell cycle arrest in human K562/ADR cells assessed as accumulation in G2/M phase at 6.5 uM after 48 hrs by propidium iodide staining-based flow cytometry (reference value: 8.32 +/- 0.81%). In kind it is functional.
Test [26] can be described thus: Cell cycle arrest in human K562/ADR cells assessed as accumulation in G2/M phase at 0.1 uM after 48 hrs by propidium iodide staining-based flow cytometry (reference value: 8.32 +/- 0.81%). In kind it is functional.
Test [27] concerns K562/Adr. Kind of test: Inhibition of P-glycoprotein in human K562/ADR cells at 0.1 uM after 48 hrs by Western blot analysis. In kind it is cell-based.
Test [28] concerns the target T1, Tubulin (Homo sapiens). The note with it: K562/Adr, 0.2 uM.
Description: Inhibition of tubulin polymerization in human K562/ADR cells assessed as reduction in microtubule density at 0.2 uM after 8 hrs by DAPI staining based immunofluorescence microscopy
Test [29] concerns K562/Adr. Description: Induction of apoptosis in human K562/ADR cells assessed as nuclear fragmentation at 0.1 uM after 48 hrs by Hoechst 33342 staining based fluorescence microscopy. In kind it is functional, cell-based.
Test [30] deals with K562/Adr. Description: Induction of apoptosis in human K562/ADR cells assessed as induction of cell shrinkage at 0.1 uM after 48 hrs by Hoechst 33342 staining based fluorescence microscopy. In kind it is functional.
Test [31] relates to K562/Adr. Kind of test: Induction of apoptosis in human K562/ADR cells assessed as viable cells at 0.1 uM after 48 hrs by Annexin V-APC/7-AAD staining based flow cytometry (reference value: 93.25%). In kind it is functional. The note with it: read-out: Activity.
Test [32] has as its target T1, Tubulin (Homo sapiens). The note with it: K562/Adr, 0.2 uM. This is another data set of the same source.
Description: Inhibition of tubulin polymerization in human K562/ADR cells assessed as microtubule disruption at 0.2 uM after 8 hrs by DAPI staining based immunofluorescence microscopy
Test [33] has as its system K562/Adr. Kind of test: Induction of apoptosis in human K562/ADR cells assessed as nuclear condensation at 0.1 uM after 48 hrs by Hoechst 33342 staining based fluorescence microscopy. In kind it is functional, cell-based.
The test system of test [34] is K562/Adr. Description: Induction of apoptosis in human K562/ADR cells assessed as necrotic cells at 0.1 uM after 48 hrs by Annexin V-APC/7-AAD staining based flow cytometry (reference value: 3.57%). In kind it is functional.
Test [35] relates to K562/Adr. Kind of test: Induction of apoptosis in human K562/ADR cells assessed as late apoptotic cells at 0.1 uM after 48 hrs by Annexin V-APC/7-AAD staining based flow cytometry (reference value: 1.69%). In kind it is functional.
For test [36], the system named is K562/Adr. Kind of test: Induction of apoptosis in human K562/ADR cells assessed as early apoptotic cells at 0.1 uM after 48 hrs by Annexin V-APC/7-AAD staining based flow cytometry (reference value: 1.49%). In kind it is functional.

Activity calls are given as the source filed them. The calls are words filed in the database; no cut-off is given here.

A word on the IC50: it is the point on the concentration scale where inhibition reaches its midpoint. Take `COc1cc([C@@H]2c3cc4c(cc3[C@H](OC(=O)CCC(=O)O[C@H]3O[C@@H]5O[C@@]6(C)CC[C@H]7[C@H](C)CC[C@@H]([C@H]3C)[C@@]57OO6)[C@H]3COC(=O)[C@H]23)OCO4)cc(OC)c1OC`: the IC50 came to 3.01 µM in the test with A549; 0.672 µM in the test with HepG2; 0.936 µM in the test on HeLa; 0.453 µM in the test with K562 [8]; 2.02 µM in test [9]; 0.72 µM in the test with HUVEC. Moreover, the inhibition result in the test with K562/Adr [1], at Tubulin (Homo sapiens) [4] and at Tubulin (Homo sapiens) [13] was “Active” throughout. Also, the Activity amounted to 2.68% in the test with K562/Adr [2], 21.4% in test [3], 6.39% in the test on K562/Adr [5] and 2.82% in the test with K562/Adr [10]. In the test on K562 [6], the “Ratio IC50” value is recorded as 4.454. In addition, the outcome with K562/Adr [7], with K562/Adr [11] and in the test on K562/Adr [12] was Active. Also, the viability at 2.5 µM in the test on K562/Adr [14] was 88.1%.
Regarding `C[C@H]1[C@H](OC(=O)CCC(=O)O)O[C@@H]2O[C@@]3(C)CC[C@H]4[C@H](C)CC[C@@H]1[C@@]24OO3` [ARTESUNATE], the IC50 was determined as 15.9 µM in the test on A549; 22.2 µM in the test with HepG2; 19 µM in the test on HeLa; 6 µM in the test on K562 [8]; 6.26 µM in [9]; 1.09 µM in the test on HUVEC. Moreover, the Activity in the test on K562/Adr [15] amounted to 9.31%; in the test with K562/Adr [20], 7.2%; with K562/Adr [22] it was 5.97%; in test [25] it was 16.9%. Further, the viability at 6.5 µM in the test on K562/Adr [16] stood at 77.5%. Moreover, the result with K562/Adr [17], in the test on K562/Adr [21] and in the test on K562/Adr [23] was Active. Besides, the inhibition entry on Tubulin (Homo sapiens) [18], at Tubulin (Homo sapiens) [19] and in the test on K562/Adr [24] was “Active” throughout. For the same compound, the “Ratio IC50” value in the test with K562 [6] was 1.042.
Consider `COc1cc([C@@H]2c3cc4c(cc3[C@@H](O[C@@H]3O[C@@H]5CO[C@@H](C)O[C@H]5[C@H](O)[C@H]3O)[C@H]3COC(=O)[C@H]23)OCO4)cc(OC)c1O` [ETOPOSIDE], for which the IC50 is 2.68 µM with A549; 1.75 µM with HepG2; 1.6 µM with HeLa; 0.413 µM in the test with K562 [8]; 2.02 µM in [9]; 1.34 µM in the test with HUVEC. Moreover, the “Ratio IC50” value in the test on K562 [6] is given as 4.903.
Consider `COc1cc([C@@H]2c3cc4c(cc3[C@H](O)[C@H]3COC(=O)[C@H]23)OCO4)cc(OC)c1OC` [PODOFILOX], for which the Activity worked out at 33.2% in [26], 10.26% with K562/Adr [34], 10.65% with K562/Adr [35] and 24.7% with K562/Adr [36]. In addition, the IC50 in the test on A549 came to 0.014 µM; in the test on HepG2, 0.014 µM; in the test on HeLa, 0.012 µM; in the test on K562 [8], 0.006 µM; in test [9], 0.085 µM; in the test with HUVEC, 0.014 µM. Besides, the inhibition entry in the test with K562/Adr [27], at Tubulin (Homo sapiens) [28] and on Tubulin (Homo sapiens) [32] was “Active” throughout. Also, the outcome in the test with K562/Adr [29], with K562/Adr [30] and with K562/Adr [33] was Active. Further, the viability at 0.1 µM with K562/Adr [31] stood at 54.4%. Moreover, in the test on K562 [6], the “Ratio IC50” value was determined as 14.166.
